Test results: ChEMBL document CHEMBL5291721, “A preclinical secondary pharmacology resource illuminates target-adverse drug reaction associations of marketed drugs” (Nat Commun, 2023)

Key:
[1] = target: Growth hormone secretagogue receptor type 1 (Homo sapiens, UniProt Q92847)
[2] = target: T1, Adenosine receptor A1 (Homo sapiens, UniProt P30542)
T1 sequence (P30542 whole entry): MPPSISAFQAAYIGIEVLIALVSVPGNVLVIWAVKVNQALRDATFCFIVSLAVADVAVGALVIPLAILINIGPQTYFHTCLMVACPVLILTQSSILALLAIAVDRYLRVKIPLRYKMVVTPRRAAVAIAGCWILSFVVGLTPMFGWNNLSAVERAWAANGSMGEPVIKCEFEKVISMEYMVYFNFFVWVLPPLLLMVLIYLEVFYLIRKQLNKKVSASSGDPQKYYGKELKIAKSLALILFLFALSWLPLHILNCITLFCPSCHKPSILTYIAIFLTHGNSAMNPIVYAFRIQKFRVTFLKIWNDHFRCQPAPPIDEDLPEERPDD

[3] = target: Cannabinoid receptor 1 (Homo sapiens, UniProt P21554); assay type: functional, cell-based
Sequence of Cannabinoid receptor 1 (P21554 whole entry): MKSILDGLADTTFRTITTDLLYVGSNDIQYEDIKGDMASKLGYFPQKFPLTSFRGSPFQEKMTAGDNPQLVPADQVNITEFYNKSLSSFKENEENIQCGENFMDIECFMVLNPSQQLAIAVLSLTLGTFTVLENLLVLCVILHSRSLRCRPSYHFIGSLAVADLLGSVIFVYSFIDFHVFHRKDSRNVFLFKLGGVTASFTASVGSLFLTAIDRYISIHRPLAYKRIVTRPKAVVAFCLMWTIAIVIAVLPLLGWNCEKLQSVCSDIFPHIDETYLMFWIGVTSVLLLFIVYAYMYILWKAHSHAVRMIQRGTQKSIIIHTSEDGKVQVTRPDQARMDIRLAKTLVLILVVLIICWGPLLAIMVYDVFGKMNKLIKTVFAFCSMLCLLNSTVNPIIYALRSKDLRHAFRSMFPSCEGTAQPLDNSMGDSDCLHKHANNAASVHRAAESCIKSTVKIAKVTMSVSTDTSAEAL

[4] = target: T2, 5-hydroxytryptamine receptor 2C (Homo sapiens, UniProt P28335)
T2 sequence (P28335 whole entry): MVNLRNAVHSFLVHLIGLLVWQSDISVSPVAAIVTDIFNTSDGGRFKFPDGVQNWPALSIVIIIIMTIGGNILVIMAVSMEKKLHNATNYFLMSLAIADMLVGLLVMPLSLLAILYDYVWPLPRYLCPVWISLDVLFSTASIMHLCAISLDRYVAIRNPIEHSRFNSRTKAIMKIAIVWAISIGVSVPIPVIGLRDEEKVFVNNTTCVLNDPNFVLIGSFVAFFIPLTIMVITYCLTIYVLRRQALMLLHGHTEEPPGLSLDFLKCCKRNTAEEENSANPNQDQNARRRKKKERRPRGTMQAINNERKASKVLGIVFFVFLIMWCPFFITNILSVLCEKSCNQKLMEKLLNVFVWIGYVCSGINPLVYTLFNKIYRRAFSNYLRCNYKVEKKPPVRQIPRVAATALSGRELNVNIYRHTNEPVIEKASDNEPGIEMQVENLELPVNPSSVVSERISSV

[5] = target: T3, Alpha-1A adrenergic receptor (Homo sapiens, UniProt P35348); assay type: functional, cell-based
T3 sequence (P35348 whole entry): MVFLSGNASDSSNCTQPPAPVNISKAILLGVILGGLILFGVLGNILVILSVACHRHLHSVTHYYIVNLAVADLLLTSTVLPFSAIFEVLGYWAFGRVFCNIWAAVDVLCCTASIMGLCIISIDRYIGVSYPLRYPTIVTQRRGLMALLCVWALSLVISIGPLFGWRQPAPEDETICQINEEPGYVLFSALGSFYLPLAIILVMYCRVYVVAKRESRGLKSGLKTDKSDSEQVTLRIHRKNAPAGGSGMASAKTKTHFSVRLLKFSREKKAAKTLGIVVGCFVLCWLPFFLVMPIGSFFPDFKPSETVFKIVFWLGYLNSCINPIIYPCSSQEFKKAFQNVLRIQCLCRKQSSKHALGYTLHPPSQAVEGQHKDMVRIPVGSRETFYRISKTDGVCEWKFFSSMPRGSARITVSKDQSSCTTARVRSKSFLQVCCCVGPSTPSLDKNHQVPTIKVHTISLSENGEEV

[6] = target: 5-hydroxytryptamine receptor 2B (Homo sapiens, UniProt P41595); assay type: functional, cell-based
Sequence of 5-hydroxytryptamine receptor 2B (P41595 whole entry): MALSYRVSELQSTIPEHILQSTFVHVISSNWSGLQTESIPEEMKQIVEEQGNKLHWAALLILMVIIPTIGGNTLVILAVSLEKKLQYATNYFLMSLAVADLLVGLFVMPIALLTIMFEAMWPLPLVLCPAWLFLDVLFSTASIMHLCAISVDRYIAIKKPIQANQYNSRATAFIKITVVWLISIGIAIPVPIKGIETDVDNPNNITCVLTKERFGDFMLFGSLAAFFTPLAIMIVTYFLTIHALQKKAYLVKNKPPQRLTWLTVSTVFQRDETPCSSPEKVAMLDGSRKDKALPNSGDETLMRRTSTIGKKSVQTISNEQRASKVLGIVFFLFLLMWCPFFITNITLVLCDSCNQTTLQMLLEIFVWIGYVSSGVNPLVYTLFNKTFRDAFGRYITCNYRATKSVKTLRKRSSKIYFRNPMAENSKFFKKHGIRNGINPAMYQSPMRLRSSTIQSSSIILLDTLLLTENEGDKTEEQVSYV

[7] = target: T4, Alpha-2A adrenergic receptor (Homo sapiens, UniProt P08913); assay type: functional, cell-based
T4 sequence (P08913 whole entry): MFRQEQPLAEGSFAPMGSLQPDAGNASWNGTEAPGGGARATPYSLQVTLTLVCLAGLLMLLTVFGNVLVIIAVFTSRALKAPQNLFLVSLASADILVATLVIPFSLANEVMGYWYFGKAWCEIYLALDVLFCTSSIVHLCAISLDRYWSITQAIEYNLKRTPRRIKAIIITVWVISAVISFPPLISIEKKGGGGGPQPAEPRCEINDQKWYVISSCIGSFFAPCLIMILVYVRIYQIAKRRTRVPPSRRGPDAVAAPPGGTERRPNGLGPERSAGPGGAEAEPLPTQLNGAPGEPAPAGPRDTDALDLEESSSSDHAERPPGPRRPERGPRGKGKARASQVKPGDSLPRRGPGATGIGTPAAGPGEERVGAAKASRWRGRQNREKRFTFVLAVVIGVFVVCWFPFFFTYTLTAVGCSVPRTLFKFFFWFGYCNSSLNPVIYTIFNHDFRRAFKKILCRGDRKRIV

[8] = target: Neuronal acetylcholine receptor subunit alpha-4 (Homo sapiens, UniProt P43681)
Sequence of Neuronal acetylcholine receptor subunit alpha-4 (P43681 whole entry): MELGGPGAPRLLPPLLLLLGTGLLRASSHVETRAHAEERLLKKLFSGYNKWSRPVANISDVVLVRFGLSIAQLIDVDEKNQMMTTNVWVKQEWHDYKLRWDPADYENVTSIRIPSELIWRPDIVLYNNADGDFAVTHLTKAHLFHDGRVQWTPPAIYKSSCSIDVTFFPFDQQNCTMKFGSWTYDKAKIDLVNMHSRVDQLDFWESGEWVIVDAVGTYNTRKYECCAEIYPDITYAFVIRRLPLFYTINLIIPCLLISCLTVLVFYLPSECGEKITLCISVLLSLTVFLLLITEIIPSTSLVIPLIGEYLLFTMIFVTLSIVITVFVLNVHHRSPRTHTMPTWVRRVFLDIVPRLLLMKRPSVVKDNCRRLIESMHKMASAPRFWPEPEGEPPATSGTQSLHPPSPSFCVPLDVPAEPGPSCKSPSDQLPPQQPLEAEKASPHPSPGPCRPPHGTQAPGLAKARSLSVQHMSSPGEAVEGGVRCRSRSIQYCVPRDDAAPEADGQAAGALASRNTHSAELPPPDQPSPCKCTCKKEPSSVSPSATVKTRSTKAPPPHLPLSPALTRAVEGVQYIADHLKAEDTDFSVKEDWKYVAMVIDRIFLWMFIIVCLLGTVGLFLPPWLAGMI

[9] = target: Histamine H2 receptor (Homo sapiens, UniProt P25021); assay type: functional, cell-based
Sequence of Histamine H2 receptor (P25021 whole entry): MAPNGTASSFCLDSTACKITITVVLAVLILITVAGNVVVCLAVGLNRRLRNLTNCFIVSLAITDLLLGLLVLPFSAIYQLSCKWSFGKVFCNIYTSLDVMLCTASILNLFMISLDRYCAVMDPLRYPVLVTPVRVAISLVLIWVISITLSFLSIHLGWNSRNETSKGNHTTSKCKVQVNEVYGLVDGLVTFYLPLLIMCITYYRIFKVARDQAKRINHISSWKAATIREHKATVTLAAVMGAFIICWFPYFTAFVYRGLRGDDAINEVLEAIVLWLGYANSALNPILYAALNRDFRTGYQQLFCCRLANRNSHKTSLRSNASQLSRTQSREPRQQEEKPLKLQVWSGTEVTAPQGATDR

[10] = target: cGMP-inhibited 3',5'-cyclic phosphodiesterase 3A (Homo sapiens, UniProt Q14432); assay type: functional
Sequence of cGMP-inhibited 3',5'-cyclic phosphodiesterase 3A (Q14432 whole entry): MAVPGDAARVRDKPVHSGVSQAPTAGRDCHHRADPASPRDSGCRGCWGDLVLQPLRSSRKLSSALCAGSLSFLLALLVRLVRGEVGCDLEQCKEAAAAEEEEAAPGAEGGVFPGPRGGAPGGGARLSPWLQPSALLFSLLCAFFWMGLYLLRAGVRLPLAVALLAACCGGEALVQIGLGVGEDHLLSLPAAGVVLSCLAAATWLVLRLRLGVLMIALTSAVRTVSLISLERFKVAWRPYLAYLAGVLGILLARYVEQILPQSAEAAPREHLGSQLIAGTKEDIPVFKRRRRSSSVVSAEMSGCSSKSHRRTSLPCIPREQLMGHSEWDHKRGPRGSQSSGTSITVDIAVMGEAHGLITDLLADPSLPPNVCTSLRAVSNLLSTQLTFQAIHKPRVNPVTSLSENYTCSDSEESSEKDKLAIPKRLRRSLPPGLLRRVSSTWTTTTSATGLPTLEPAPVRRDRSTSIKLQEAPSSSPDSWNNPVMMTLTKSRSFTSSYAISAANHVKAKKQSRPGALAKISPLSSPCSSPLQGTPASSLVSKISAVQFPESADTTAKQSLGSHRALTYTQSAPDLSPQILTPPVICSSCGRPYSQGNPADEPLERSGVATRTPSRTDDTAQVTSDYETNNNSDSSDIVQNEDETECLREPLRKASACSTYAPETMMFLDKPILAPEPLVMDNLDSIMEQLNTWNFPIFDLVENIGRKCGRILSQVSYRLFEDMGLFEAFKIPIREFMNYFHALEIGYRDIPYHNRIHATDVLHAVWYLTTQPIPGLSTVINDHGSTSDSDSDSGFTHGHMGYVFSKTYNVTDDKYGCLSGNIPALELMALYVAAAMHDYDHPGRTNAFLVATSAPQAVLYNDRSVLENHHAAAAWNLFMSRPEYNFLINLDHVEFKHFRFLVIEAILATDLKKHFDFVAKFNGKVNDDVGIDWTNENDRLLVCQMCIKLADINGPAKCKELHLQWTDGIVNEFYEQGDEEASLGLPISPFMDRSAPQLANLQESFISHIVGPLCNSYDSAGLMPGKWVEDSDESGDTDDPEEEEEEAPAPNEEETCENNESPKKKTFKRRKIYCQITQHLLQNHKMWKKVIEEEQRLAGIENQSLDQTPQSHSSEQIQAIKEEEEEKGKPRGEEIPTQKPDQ

[11] = target: Voltage-dependent L-type calcium channel subunit alpha-1C (Rattus norvegicus, UniProt P22002); assay type: functional
[12] = target: Sodium-dependent dopamine transporter (Homo sapiens, UniProt Q01959)
Sequence of Sodium-dependent dopamine transporter (Q01959 whole entry): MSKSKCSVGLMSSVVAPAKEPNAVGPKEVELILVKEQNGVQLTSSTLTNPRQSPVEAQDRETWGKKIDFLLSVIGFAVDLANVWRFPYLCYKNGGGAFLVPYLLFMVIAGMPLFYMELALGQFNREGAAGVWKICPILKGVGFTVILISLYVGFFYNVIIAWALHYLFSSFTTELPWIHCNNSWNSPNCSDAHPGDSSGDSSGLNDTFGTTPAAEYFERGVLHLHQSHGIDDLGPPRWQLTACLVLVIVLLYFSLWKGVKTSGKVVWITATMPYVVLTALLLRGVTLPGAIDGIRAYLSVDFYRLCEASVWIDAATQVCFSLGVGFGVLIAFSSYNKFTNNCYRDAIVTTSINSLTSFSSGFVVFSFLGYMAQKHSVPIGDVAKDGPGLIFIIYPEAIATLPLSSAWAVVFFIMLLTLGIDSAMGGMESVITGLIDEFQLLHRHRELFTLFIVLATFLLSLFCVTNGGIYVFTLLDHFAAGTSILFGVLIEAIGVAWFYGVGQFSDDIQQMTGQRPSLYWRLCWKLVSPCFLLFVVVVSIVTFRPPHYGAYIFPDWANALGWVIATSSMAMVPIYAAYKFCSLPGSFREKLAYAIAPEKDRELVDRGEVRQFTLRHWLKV

[13] = target: T5, Amine oxidase [flavin-containing] A (Homo sapiens, UniProt P21397); assay type: functional
T5 sequence (P21397 whole entry): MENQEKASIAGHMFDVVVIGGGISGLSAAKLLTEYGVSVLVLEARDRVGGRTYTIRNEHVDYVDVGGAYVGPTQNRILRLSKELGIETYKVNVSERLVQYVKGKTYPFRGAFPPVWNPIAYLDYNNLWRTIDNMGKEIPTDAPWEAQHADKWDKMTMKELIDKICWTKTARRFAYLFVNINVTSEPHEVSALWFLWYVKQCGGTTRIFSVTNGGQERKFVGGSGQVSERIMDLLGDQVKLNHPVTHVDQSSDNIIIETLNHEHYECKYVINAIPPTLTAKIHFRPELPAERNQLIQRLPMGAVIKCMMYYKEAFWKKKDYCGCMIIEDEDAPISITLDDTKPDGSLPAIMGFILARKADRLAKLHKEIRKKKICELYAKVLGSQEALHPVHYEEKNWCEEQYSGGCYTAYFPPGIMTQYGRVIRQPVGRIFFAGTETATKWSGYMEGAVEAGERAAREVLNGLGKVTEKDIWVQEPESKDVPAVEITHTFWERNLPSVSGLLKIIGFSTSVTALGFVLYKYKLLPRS
Further: assay procedure not described here.

Sequence of Growth hormone secretagogue receptor type 1 (Q92847 whole entry): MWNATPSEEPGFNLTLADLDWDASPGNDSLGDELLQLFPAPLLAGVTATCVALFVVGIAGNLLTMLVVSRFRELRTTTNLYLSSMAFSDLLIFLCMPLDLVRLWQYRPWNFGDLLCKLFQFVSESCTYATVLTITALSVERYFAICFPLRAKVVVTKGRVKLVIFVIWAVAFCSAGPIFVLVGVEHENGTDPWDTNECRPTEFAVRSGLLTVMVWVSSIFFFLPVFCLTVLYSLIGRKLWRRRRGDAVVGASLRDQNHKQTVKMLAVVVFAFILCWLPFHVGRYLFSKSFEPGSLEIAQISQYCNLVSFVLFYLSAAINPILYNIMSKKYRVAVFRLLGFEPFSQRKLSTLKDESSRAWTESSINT

Row | Compound | AC50 [1] [µM] | AC50 [2] [µM] | AC50 [3] [µM] | AC50 [4] [µM] | AC50 [5] [µM] | AC50 [6] [µM] | AC50 [7] [µM] | AC50 [8] [µM] | AC50 [9] [µM] | AC50 [10] [µM] | AC50 [11] [µM] | AC50 [12] [µM] | AC50 [13] [µM]
1 | CC(=O)OCC(=O)[C@@]1(O)CC[C@H]2[C@@H]3CCC4=CC(=O)CC[C@]4(C)[C@@]3(F)[C@@H](O)C[C@@]21C [FLUDROCORTISONE ACETATE] | > 30 | > 30 | > 30 | > 30 | > 30 | > 30 | > 30 | > 30 | > 30 | > 30 | > 30 | > 30 | 
2 | CCC(=O)O[C@H](CC(=O)O)C[N+](C)(C)C [LEVOCARNITINE PROPIONATE] | > 30 | > 30 | > 30 | > 30 | > 30 | > 30 | > 30 | > 30 | > 30 | > 30 |  | > 30 | > 30
3 | O=C(O)c1nn(Cc2ccc(Cl)cc2Cl)c2ccccc12 [LONIDAMINE] | > 30 | > 30 | > 30 | > 30 | > 30 | > 30 | > 30 | > 30 | > 30 | > 30 |  | > 30 | > 30
4 | COC(=O)c1ccc2c(c1)NC(=O)/C2=C(\Nc1ccc(N(C)C(=O)CN2CCN(C)CC2)cc1)c1ccccc1 [NINTEDANIB] | > 30 | > 30 | > 30 | 25 | > 30 | > 30 | > 30 | > 30 | > 30 | > 30 |  | > 30 | > 30
5 | CS(=O)(=O)NC(=O)CCC/C=C\C[C@H]1C(=O)C[C@@H](O)[C@@H]1/C=C/[C@@H](O)COc1ccccc1 [SULPROSTONE] | > 30 | > 30 | > 30 | > 30 | > 30 | > 30 | > 30 | > 30 | > 30 | > 30 |  | > 30 | > 30
6 | CCCCOC(=O)C(=O)Nc1cccc(-c2nnn[nH]2)c1 [TAZANOLAST] | > 30 | > 30 | > 30 |  | > 30 | > 30 | > 30 | > 30 | > 30 | > 30 | > 30 | > 30 | > 30
7 | CCCCC[C@H](O)CC[C@@H]1[C@H]2Cc3cccc(OCC(=O)O)c3C[C@H]2C[C@H]1O [TREPROSTINIL] | > 30 | > 30 | > 30 |  | > 30 | > 30 | > 30 | > 30 | > 30 | > 30 |  | > 30 | > 30
8 | CCCCCCCC(=O)CC[C@@H]1[C@@H](C/C=C\CCCC(=O)O)[C@@H](O)C[C@H]1O [UNOPROSTONE] | > 30 | > 30 | > 30 | > 30 | > 30 | > 30 | > 30 | > 30 | > 30 | > 30 |  | > 30 | > 30
